In the experiment the test system is MAPK1/ELK1 interaction. Put plainly: SIMPL kinase/substrate interactions (ELISA and Western blot). Type of experiment: cell-based, human. The following applies: kinase-IN / substrate-IC, stimulation. The method, then: Cell culture and treatment. HEK 293 and HeLa cell lines were generous gifts from Dr. J. Moffat. HEK 293 Flp-In T-Rex cell line was a generous gift from Dr. A. C. Gingras. These cells were grown in DMEM supplemented with 10% fetal calf serum (Life Technologies). PC9 cell line was a generous gift from Dr. P. Jannes and they were grown in RPMI 1640 medium supplemented with 10% fetal calf serum. For ELISA assay, cells were seeded in 96 well (Sarstedt AG & Co) or 384 well plates (Greiner Bio-One) with 15,000 (96 well) or 5,000 (384 well) cells per well. Cells were transfected with various plasmids with polyethylenimine (PEI) Max (Polysciences). Expression in HEK 293 Flp-In T-Rex cells was induced by treating the cells with tetracycline (1 μg/ml) for 6-16 hrs. […] Stable cell lines were created according to the manual of Flp-In T-REx (Invitrogen). Briefly, plasmid containing both bait and prey DNA and pOG44 plasmid (1:10 ratio) were cotransfected into HEK 293 Flp-In T-Rex cells.
Western blot analysis and immunoprecipitation. Cells were lysed in buffer H (Triton X 100 1%, β-glycerophosphate pH7.3 50 mM, EGTA 1.5 mM, EDTA 1 mM, orthovanadate 0.1 mM, DTT 1 mM supplemented with protease inhibitors (Roche)). […]
ELISA. […] The plate was washed 3 times with PBST followed by chemiluminescence reading using SuperSignal ELISA Pico substrate (ThermoFisher). […]
For orientation: ELISA stands for enzyme-linked immunosorbent assay.

For Tetradecanoylphorbol acetate [TPA], the “MAPK1/ELK1 interaction after MAPK1 activation” value is recorded as “enhanced MAPK1/ELK1 interaction”.
